The values below come from article PMC12914960, “Repurposing a detrimental antibody epitope as targeted therapeutics for sepsis and rheumatoid arthritis” (Military Medical Research, 2026).

One test deals with human PBMCs. The test is described as follows: RNA-seq of HMGB1-stimulated PBMCs. The format is cell-based. As to the method: Total RNA was isolated from human PBMCs (n = 6 biological replicates) stimulated with HMGB1 in the absence or presence of P2-1 (5.0 or 10.0 µg/ml) via the RNeasy Mini Kit (Qiagen, Germantown, MD, USA) according to the manufacturer’s instructions. cDNA libraries were prepared using the TruSeq RNA Library Prep Kit v2 (Illumina, San Diego, CA, USA) and sequenced on an Illumina NovaSeq 6000 platform to generate 100 bp paired-end reads. Gene counts were quantified via StringTie and DESeq2 for differential gene expression analysis. Volcano plots and heatmaps were generated via ggplot2 and pheatmap packages in R, respectively. Genes with an adjusted P-value < 0.05 and a |log2 fold change|> 1 were considered differentially expressed. […]
custom-synthesized (Gen Script, Piscataway, NJ, USA). P2 -1 was engineered to: i) increase solubility by removing a w ater-insoluble phenylalanine (F) at the C-terminal residue 70 and introducing a water-soluble threonine (T) at N-t erminal residue 54; and ii) reduce oxidative susceptibility by substituting methionine (M) with norleucine (Nle) and cysteine (C) with serine (S), respectively. The pCTS -L-neutralizing mAbs (mAb2) and TN-neutrali zing mAbs (mAb8 and m Ab9) were generated in BALB/c and C57BL/6 m ice as previously described .
RNA sequencing (RNA- Seq) and bioinformatics analysis
Total RNA was isolated from human PBMCs (n= 6 biological replicates) stimulated with HMGB1 in the absence o r pres ence o f P2-1 (5.0 or 10.0 µg/ml) via the RNeasy Mini Kit (Qiagen, Germantown, MD, USA) according to the manufacturer ’s instructions. RNA quantity and quality were assessed via a NanoDrop spectrophotometer, which requires A260/280 and A260/230 ratios to both be > 1.8. Samples meeting these criteria were then sent to two sequencing facilities, where RNA integrity was further confirmed via an Agilent Bioanalyzer. Only samples with an RNA integrity number of 8 or above were accepted for RNA sequencing. cDNA libraries were prepared using the TruSeq RNA Library Prep Kit v2 (Illumina, San Diego, CA, USA) and sequenced on an Illumina NovaSeq 6000 platform to generat e 100 bp paired-end reads. Our data filtering criteria adhered to industry best practices to ensure data quality.
First, raw sequencing reads underwent quality assessment with FastQC, followed by adapter and low-quality nucleotide trimming using Trimmomatic v.0.36. Subsequently, the high- quality reads wer e aligned to the Homo sapiens GRCh38 reference genome using the STAR aligner v.2.5.2b. Following alignment, PCR duplicates were identified and removed with Picard tools to mitigate amplification bias. Before differential expression an alysis, the gene count matrix was filtered to retain only genes with a count-per-million (CPM) > 1 in at least three samples (n = 3, representing our smallest experimental group). This rigorous procedure ensured that analysis was perfo rmed on a robust set of reliably expressed gen es. Finally, gene counts were quantified via StringTie and DESeq2 for differential gene expression analysis. Volcano

For test [1], the system named is Differentiated human macrophages. The test is described as follows: HMGB1-induced macrophage death, LDH release. The class given is cell-based. The arrangement: key: % of maximal LDH release (2% Triton X-100). The settings on record: 16 h, percentage of maximal release (2% Triton X-100) per method, individual replicates. As to the method:
Human macrophage differentiation and treatment
Human PBMCs were differentiated into macrophages by culturing in human macrophage colony-stimulating factor (M-CSF, 20 ng/ml) for 5 – 6 d. Differentiated macrophages were maintained in Dulbecco’s modified Eagle’s medium supplemented with 1% penicillin/streptomycin and 10% human serum. Upon reaching 70 – 80% conflu ence, adh erent cells were wash ed and switched to Opti-MEM I before stimulation with recombinant HMGB1 (0.5 µg/ml) with or without P2- 1 (5.0 or 10 µg/ml) for 16 […]
Cell viability was assessed via the tryp an blue excl usion and lactat e dehyd ro genase (LDH) release method as previously described . For trypan blue exclusion, random phase-contr ast images were captur ed , and the percentage of nonviable, trypan blue-stained cells was calculated. LDH release in the culture medium was quantified with an LDH Ass ay Kit (Cat. #L7572, Pointe Scientific Inc., Canton, MI, USA) according to the manufacturer ’s instructions. Optical density was measured at 340 nm, and LDH content was expressed as a per centag e of maximal release in the presence of 2% Triton X-100. The experiments were performed 5 – 7 times ( n= 5 –7 biological replicates). […]
(LDH leaks from cells whose membrane has failed.)

The target in a further test is T1, Recombinant human HMGB1 (Homo sapiens, UniProt P09429).
T1 construct: made in house; host or cells: E. coli BL21 (DE3) pLysS (given for the rat HMGB1 preparation)
T1 sequence (P09429 whole entry, looked up): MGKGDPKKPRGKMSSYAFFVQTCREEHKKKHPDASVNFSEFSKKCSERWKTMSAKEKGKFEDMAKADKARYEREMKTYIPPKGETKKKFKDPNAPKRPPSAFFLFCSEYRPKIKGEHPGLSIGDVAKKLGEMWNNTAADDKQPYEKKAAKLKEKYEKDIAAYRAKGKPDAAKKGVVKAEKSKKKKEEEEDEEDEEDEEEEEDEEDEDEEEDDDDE
As to the kind of experiment: SPR binding to immobilized HMGB1 (OpenSPR). The settings on record: 1:1 model. As to the method:
Binding kinetics between HMGB1 and P2-1 were measured via Nicoya Life Science gold nanoparticle-based OpenSPR technology (Kitchener, ON, Canada) as previously described. Recombinant human HMGB1 was immobilized onto a carboxyl sensor chip, and the P2-1 peptide was flowed over the immobilized HMGB1 at various concentrations in HEPES-buffered saline with poloxamer (HBS-P buffer, GE Healthcare, Chicago, IL, USA). The response units were recorded over time, and binding affinity was estimated as the equilibrium dissociation constant KD using Trace Drawer Kinetic Data Analysis v.1.6.1 (Nicoya Life Science). Given the 1:1 stoichiometry of the HMGB1-P2-1 interaction predicted by ClusPro protein-protein docking (Additional file 1: Fig. S2), we applied a 1:1 interaction algorithm to determine the association rate constant (ka), dissociation rate constant (kd), and equilibrium dissociation constant (KD) from three independent experiments (n = 3 technical replicates). […]
interaction between high mobility group box 1 (HMGB1) and P2- 1. SPR plots showing the interaction between immobilized HMGB1 and different concentrations of the P2- 1 analyte. Experimental binding responses (blue, purple, and yellow traces) are shown with their corresponding global fits (black curves) via a 1:1 interaction model. The associated table summarizes the globally fitted kinetic parameters, including the maximum b inding capacity (Bmax), association rat e constant (ka), dissociation rat e con stant (kd), and other goodness-of-fit metrics (Chi2). The relatively low Chi2 value indicated a good fit bet ween
(1 picture or pasted object on this page, not shown here)
A general note: SPR reads the build-up and loss of mass on a sensor chip optically.

Molecules are shown by their SMILES. Several values for one entry are separate records, joined by “and”; a condition that tells them apart may be missing. Equal entries are not always repeated. Where a SMILES comes first, the peptide text is derived from it.

As usually defined, the KD is the free concentration of one partner at which half of the binding sites on the other are occupied at equilibrium, for simple one-to-one binding. Take `CCCC[C@H](NC(=O)[C@H](Cc1c[nH]cn1)NC(=O)[C@@H](NC(=O)[C@H](CCCCN)NC(=O)[C@@H](N)[C@@H](C)O)C(C)C)C(=O)N[C@@H](CCCCN)C(=O)N[C@@H](CO)C(=O)N[C@@H](Cc1ccccc1)C(=O)N[C@@H](CC(C)C)C(=O)N[C@@H](C)C(=O)N[C@@H](Cc1ccccc1)C(=O)N[C@@H](CCC(N)=O)C(=O)N[C@H](C(=O)N[C@@H](CCCCN)C(=O)N[C@H](C(=O)O)[C@@H](C)O)[C@@H](C)O` [P2-1] (HELM PEPTIDE1{T.K.V.H.[Nle].K.S.F.L.A.F.Q.T.K.T}$$$$V2.0; N-terminus and C-terminus assumed): in the test on human PBMCs (HMGB1 + P2-1 5.0 µg/ml, human PBMCs), the “Ctsl mRNA upregulation” value was 2.4 ± 0.1 -fold. In addition, the “HMGB1-induced transcriptional changes, in words” value in the test on human PBMCs (HMGB1 with P2-1, human PBMCs) is recorded as “did not broadly reverse HMGB1-induced transcriptional changes in most genes”. Further, the LDH release was 2.7008 and 6.752 and 2.4476 and 4.642 and 0.844 and 5.6548 in test [1] (HMGB1 0.5 µg/ml + P2-1 5.0 μg/ml); 1.0128 and 2.532 and 6.752 and 3.376 and 5.4016 and 2.6164 and 1.1816 in test [1] (HMGB1 0.5 µg/ml + P2-1 10.0 μg/ml). The KD on Recombinant human HMGB1 (Exp 1) was found to be 0.0148 µM; on Recombinant human HMGB1 (Exp 2) it was 0.0335 µM; on Recombinant human HMGB1 (Exp 3), 0.0023 µM.
